One test concerns the target T1, hTARG1 (Homo sapiens, UniProt Q9Y530).
T1 construct: gene OARD1; synthetic gene in pET28a; E. coli Rosetta2(DE3); tag removal not clearly told
T1 sequence (Q9Y530 2-152): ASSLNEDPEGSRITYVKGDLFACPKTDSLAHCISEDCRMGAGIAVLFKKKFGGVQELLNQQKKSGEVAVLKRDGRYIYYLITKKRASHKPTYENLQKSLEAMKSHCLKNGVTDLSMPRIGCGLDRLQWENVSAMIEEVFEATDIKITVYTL
Briefly: thermal shift assay, SYPRO Orange. The test is classed as binding. To be noted: 100 mM phosphate pH 7.0; ligand up to 50 mM.

Test [1] addresses T2, FmTARG1 (Fusobacterium mortiferum, UniProt A0ABN5JAQ3).
T2 construct: gene C4N19_10685; synthetic gene in pSol-AFV, AFV-tag removed with TEV protease; expressed in E. coli 10G
T2 sequence (A0ABN5JAQ3 2-142 limits assumed): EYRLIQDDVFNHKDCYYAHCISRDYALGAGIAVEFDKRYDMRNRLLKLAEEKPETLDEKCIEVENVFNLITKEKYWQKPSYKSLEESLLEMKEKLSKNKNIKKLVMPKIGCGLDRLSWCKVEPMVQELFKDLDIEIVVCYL
Briefly: thermal shift assay, SYPRO Orange. Particulars: 100 mM phosphate pH 7.0; ligand up to 50 mM. The test is classed as binding.

The target in test [2] is T2, FmTARG1. Briefly: HPLC deacetylation assay. Particulars: competitive against OAADPr; Bis-Tris pH 7.3, 300 mM NaCl, 25 °C. The test is classed as biochemical.

As usually defined, the Ki is a measure of affinity in units of concentration, obtained from inhibition or displacement. Read a high Ki as weaker binding.

Consider `Nc1ncnc2c1ncn2[C@@H]1O[C@H](COP(=O)(O)OP(=O)(O)O)[C@@H](O)[C@H]1O` [ADP], for which the dTm result was “AMP and ADP, also bind to both enzymes in a dose-dependent manner” at hTARG1; “AMP and ADP, also bind to both enzymes in a dose-dependent manner” at FmTARG1 [1]. In turn, `Nc1ncnc2c1ncn2[C@@H]1O[C@H](COP(=O)(O)OP(=O)(O)OC[C@H]2OC(O)[C@H](O)[C@@H]2O)[C@@H](O)[C@H]1O` (some centres unmarked) [ADPr] displayed a Ki at FmTARG1 [2] of 203 ± 10 µM. As for `Nc1ncnc2c1ncn2[C@@H]1O[C@H](COP(=O)(O)O)[C@@H](O)[C@H]1O` [AMP], the dTm entry was “AMP and ADP, also bind to both enzymes in a dose-dependent manner” on hTARG1; “AMP and ADP, also bind to both enzymes in a dose-dependent manner” at FmTARG1 [1].

These data come from paper PMC6397177, “An uncharacterized FMAG_01619 protein from Fusobacterium mortiferum ATCC 9817 demonstrates that some bacterial macrodomains can also act as poly-ADP-ribosylhydrolases” (Scientific Reports, 2019).
